Results reported in patent US11674967B2, “Method of identifying potential inhibitors of APO TNFα trimers” (UCB BIOPHARMA SRL, priority 2015, dated 2023).
pIC50: −log10 of the molar value.

Legend:
TNFα = TNFα (Homo sapiens, UniProt P01375); test: Fluorescence probed thermal denaturation assay (Thermofluor) of TNFα; assay type: binding; settings: TNFα + 5% DMSO + compound
Protocol: A fluorescence probed thermal denaturation assay was performed to assess the effect of the compounds on the thermal stability of TNFα as a measure of compound binding. The reaction mix contained 5 μl of 30×SYPRO® Orange dye (Invitrogen) and 5 μl of TNFα (at 1.0 mg/ml), 37.5 μl PBS, pH 7.4 and 2.5 μl of compound (at 2 mM in DMSO). 10 μl of the mix was dispensed in quadruplicate into a 384 PCR optical well plate and was run on a 7900HT Fast Real-Time PCR System […]. PCR
System heating device was set at 20° C. to 99° C. with a ramp rate of 1.1° C./min; fluorescence changes in the wells were monitored by a Charge-coupled device (CCD). The fluorescence intensity increase was plotted as a function of temperature and the Tm calculated as the midpoint of this denaturation curve (determined as the point of inflection) (Table 1).
Thermofluor measures the change of melting temperature (Tm) of TNFα due to compound either stabilising or disrupting the protein.

Mouse TNFα = biological target: T1, Mouse TNFα (Mus musculus, UniProt P06804); test: Monomer exchange mass spectrometry, compound pre-incubated with m-TNFα; assay type: binding; settings: 1:1 complex mixed with h-TNFα
T1 construct: made in house
T1 sequence (P06804 80-235 limits assumed): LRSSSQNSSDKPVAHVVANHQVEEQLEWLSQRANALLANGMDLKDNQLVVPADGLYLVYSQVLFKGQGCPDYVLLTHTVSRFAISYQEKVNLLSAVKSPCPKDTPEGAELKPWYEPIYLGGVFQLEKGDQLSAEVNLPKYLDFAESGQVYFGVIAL
Protocol: The experiment was then repeated in reverse. Excess compound of formula 3 was incubated with Mouse TNFα, the excess compound of formula (3) was then removed. Mass Spectral analysis confirmed that a 1:1 complex had been formed between the compound of formula (3) and m-TNFα. Human TNFα was now added to this sample which was then subjected to mass spectral analysis over a number of hours. […] In addition there was evidence of formation of the ligated human homotrimer (H3L), the unligated mouse homotrimer (M3) and for unbound compound of formula (3) (L). […] Once this complex (M3L) has dissociated, monomer subunit exchange between the H3 and M3 species proceeds and the liberated ligand is then able to form complexes with all 4 trimer species present in solution.

[1] = system: hTNFα-induced neutrophil recruitment; test: Neutrophil recruitment in mice, compound pre-mixed with hTNFα, i.p.; assay type: in vivo, Balb/c mice; settings: for neutrophil recruitment vs TNFα in the absence of the compound: sample 1, ratio compound:TNFα 0.1:1, i.p.
Protocol: In separate studies, compounds of formula (3) and formula (15) were mixed with 20 μM solutions of TNFα dissolved in phosphate buffered saline (PBS) to a concentration of 2 μM, 20 μM and 200 μM. The ratio of each compound to TNFα was, therefore, 0.1:1 (sample 1), 1:1 (sample 2) and 10:1 (sample 3). […] This process separates protein bound compound and free compound. A control sample containing PBS only was processed in the same way to provide a vehicle control for the study. The concentration of eluted protein was determined using a Nanodrop (ND-1000). The TNFα: compound complexes were diluted in PBS to a concentration for injection of 0.03 μg/kg
For the study, typically, each group contained 10 male Balb/c mice (Charles River) apart from an anti-human TNFα antibody positive control, which used a set of 5 mice.
Compound only mice were also included in the study to assess the effect of compound on neutrophil recruitment.
All mice were killed by cervical dislocation two hours post-injection of hTNFα (t=2 h) and the peritoneal cavity was lavaged with 3 mL of FACS buffer (500 mL PBS containing 2 g bovine serum albumin, 6 mL HEPES buffer and […]). Lavage fluid was aspirated and neutrophil numbers were assessed by staining cells with anti-Gr1 PE and anti-CD45 FITC by FACS as detailed below.
100 μL of lavage fluid from each sample was aliquoted into FACS tubes. A FACS cocktail was made up using anti-GR-1 PE (BD cat #553128 Lot #75542) at 1 in 39 dilution and anti-CD45 FITC (BD cat #553080 Lot #80807) at 1 in 19 dilution in FACS buffer. Fc block (BD Cat #553142 Lot #87810) was prepared 1 in 10 with FACS buffer and 10 μL added to each sample 5 minutes before adding the antibody cocktail. […] Samples were then left for 20 mins on ice. 1 mL of FACS Lyse solution (BD Cat #349202 Lot #29076, diluted 1:10 in dH2O) was added to each tube, mixed and left at room temperature for 5 minutes. 1 mL of FACS Buffer was then added to each tube and centrifuged at 400 g for 5 minutes. The FACS buffer was then carefully poured off and the tip of the tube dabbed on absorbent paper to leave the tube completely dry. Then […] of 1 in 10 Reference Bead solution (Sigma cat #P2477 Lot #116K1612) diluted in FACS buffer was added to each tube.
Samples were analysed using FACScalibur II and FloJo software.

[2] = system: TNFα-induced NF-κB activation; test: HEK-Blue CD40L NF-κB reporter gene assay, TNFα stimulus; assay type: cell-based; settings: TNFα 0.5 ng/mL
Protocol: (§1) Stimulation of HEK-293 cells by TNF-alpha leads to activation of the NF-kB pathway. The reporter cell line used to determine TNF alpha activity was purchased from Invivogen. HEK-Blue™ CD40L, is a stable transfectant expressing SEAP (secreted alkaline phosphatase) under the control of the IFN-beta minimal promoter fused to 5 NF-kB binding sites. Secretion of SEAP by these cells is stimulated in a concentration dependent manner by TNF-alpha (0.5 ng/ml), IL-1-beta (0.5 ng/ml) and an activating anti-human TNFR1 antibody (300 ng/ml).
Compounds were diluted from 10 mM DMSO stocks (final assay concentration 0.3%) to generate a 10 point 3 fold serial dilution curve (30,000 nM to 2 nM final concentration). They were mixed with stimulating ligand for 1 hour in a 384 well microtitre plate. […] SEAP activity was determined in the supernatant using the colorimetric substrate Quanti-Blue™ (Invivogen).
(§2) Percentage inhibitions for compound dilutions were calculated between a DMSO control and maximum inhibition (by excess control compound) and an IC50 calculated using xlfit (4 parameter logistic model) in Activity Base.
C87 was preincubated with TNFα for 1 hour prior to the addition to HEK-293 cells stably transfected with SEAP under the control of NFκB. […] The assay was incubated overnight before inhibition was measured compared to 100% blocking by a control compound. […]

IL-1β = test: HEK-Blue NF-κB reporter gene counterscreen, IL-1β stimulus; assay type: cell-based; settings: IL-1β 0.5 ng/mL
Protocol: as §1
Compounds were diluted from 10 mM DMSO stocks (final assay concentration 0.3%) to generate a 10 point 3 fold serial dilution curve (30,000 nM to 2 nM final concentration). They were mixed with stimulating ligand for 1 hour in a 384 well microtitre plate. Freshly thawed and washed cells were added to the compound/stimulus mixture and further incubated for 18 hours. SEAP activity was determined in the supernatant using the colorimetric substrate Quanti-Blue™ (Invivogen).
as §2
The specific activity of the compound of formula (15) against the TNF-alpha response was compared to that seen with the counterscreens (IL-1beta and anti-human TNFR1 antibody).

[3] = sample 2, ratio compound:TNFα 1:1, i.p.
[4] = sample 3, ratio compound:TNFα 10:1, i.p.

Sequence of TNFα (P01375 77-233 limits assumed): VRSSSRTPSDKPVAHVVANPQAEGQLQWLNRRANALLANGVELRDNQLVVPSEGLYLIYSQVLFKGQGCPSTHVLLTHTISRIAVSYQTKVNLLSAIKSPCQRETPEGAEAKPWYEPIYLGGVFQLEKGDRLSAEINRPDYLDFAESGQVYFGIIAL

Compound	Tm (° C.) (mean ± sd) (TNFα)	Tm difference (= (TNF + cpd) - (TNF + DMSO)) (TNFα) [°C]	off-rate when complexed with m-TNFα (Mouse TNFα)	neutrophil recruitment vs TNFα in the absence of the compound [1]	inhibition of neutrophil recruitment [1, 3] [%]	inhibition of neutrophil recruitment [1, 4] [%]	pIC50 [2]	inhibition of activation of NF-κB by IL-1β (IL-1β)
Cc1ccc(C)c(Cn2c(C(O)c3ccncc3)nc3ccccc32)c1 (centres unmarked) [Compound 3]	73.2 ± 0.6 (n = 4) ° C.	11.8	measurable off-rate	not significantly different	86	85	–	–
Cc1ccc(C)c(Cn2c(C(O)c3ccncc3)nc3ccc(-c4cnn(C)c4)cc32)c1 (centres unmarked) [Compound 15]	78.5 ± 1.1 (n = 4) ° C.	17.1	no measurable off-rate	not significantly different	101	102	6.95	did not inhibit
